Two molecules from the NIST ThermoML archive (doi:10.1016/j.fluid.2011.11.016) can be followed below.

± gives the expanded uncertainty stated by the source.

This data set is described as follows: xn = mol fraction of the nth substance listed. The following applies: 298.15 K, 101.3 kPa, Liquid, Vibrating tube method.

What is called mass density is mass per unit of volume. In the case of `C1CCCCC1` [cyclohexane] + CCCCCCC, the mass density by setting is: (x2 = 0) 773.88 ± 0.13 kg/m3; (x2 = 0.0503) 766.95 ± 0.14 kg/m3; (x2 = 0.0991) 760.53 ± 0.14 kg/m3; (x2 = 0.2021) 748.16 ± 0.15 kg/m3; (x2 = 0.3118) 735.69 ± 0.15 kg/m3; (x2 = 0.3926) 726.61 ± 0.15 kg/m3. The mass density by setting is: (x2 = 0.5039) 717.21 ± 0.16 kg/m3; (x2 = 0.666) 703.79 ± 0.17 kg/m3; (x2 = 0.7062) 700.61 ± 0.17 kg/m3; (x2 = 0.8061) 692.71 ± 0.17 kg/m3; (x2 = 0.9061) 685.62 ± 0.18 kg/m3; (x2 = 0.9539) 682.6 ± 0.18 kg/m3.

In the case of `CCCCCCC` [heptane] + C1CCCCC1, under “x1 = 1”, the mass density is recorded as 679.57 ± 0.18 kg/m3.
